Among the test systems are SF-539 CNS; MALME-3M melanoma; OVCAR-5 ovarian; NCI-H226 lung; CCRF-CEM leukemia; HCC-2998 colon; LOX IMVI melanoma; UO-31 renal; OVCAR-4 ovarian; UACC-62 melanoma.
Assay in all cases: inhibition of tumour cell growth, NCI panel, 48 h

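Following 48 hours of exposure in 96-well plates, responses at five concentrations were used to interpolate endpoints linearly. GI50 = concentration required for 50% inhibition of growth. TGI: concentration producing complete growth inhibition.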

For the compound `CC(C)C[C@H](NC(=O)CCn1ccc2ccccc2c1=O)B(O)O`, the GI50 with SF-539 CNS is 1.61 µM; with MALME-3M melanoma, 2.58 µM; in the test with OVCAR-5 ovarian, 18.8 µM; with NCI-H226 lung, 1.47 µM; with CCRF-CEM leukemia, 2.02 µM; in the test on HCC-2998 colon, 6.08 µM. Moreover, the GI50 with LOX IMVI melanoma was 2.11 µM; in the test on UO-31 renal, 3.92 µM; in the test on OVCAR-4 ovarian, 17 µM; in the test with UACC-62 melanoma it was 4.29 µM. For the same compound, the TGI in the test with SF-539 CNS was 5.62 µM; with MALME-3M melanoma, 9.89 µM; with OVCAR-5 ovarian, greater than 100 µM; in the test on NCI-H226 lung, 3.24 µM; in the test with CCRF-CEM leukemia, 25.4 µM; in the test on HCC-2998 colon, 21.3 µM. The TGI in the test on LOX IMVI melanoma is 6.78 µM; with UO-31 renal, 35.3 µM; in the test on OVCAR-4 ovarian, greater than 100 µM; in the test with UACC-62 melanoma, 24.9 µM.
For `CCOC(=O)/C(I)=C/c1cc(OC)c(OC)c(OC)c1`, the TGI in the test with SF-539 CNS was greater than 100 µM; in the test on MALME-3M melanoma it was 26.2 µM; in the test on OVCAR-5 ovarian, 20 µM; in the test on NCI-H226 lung, 25.9 µM; in the test on CCRF-CEM leukemia, 8.6 µM; with HCC-2998 colon, 27.8 µM. The TGI in the test on LOX IMVI melanoma is 5.01 µM; in the test on UO-31 renal, 19.1 µM; in the test with OVCAR-4 ovarian it was 52.4 µM; with UACC-62 melanoma, 16.1 µM.
Take `COC(=O)C(C(=O)C(=O)Nc1ccc([N+](=O)[O-])cc1)c1nc2ccc([N+](=O)[O-])cc2[nH]c1=O` (configuration not stated): the TGI with SF-539 CNS, with MALME-3M melanoma, in the test with OVCAR-5 ovarian, with NCI-H226 lung, with CCRF-CEM leukemia and in the test on HCC-2998 colon was greater than 100 µM throughout. In addition, the TGI in the test on LOX IMVI melanoma, with UO-31 renal, with OVCAR-4 ovarian and in the test with UACC-62 melanoma was greater than 100 µM throughout.
As to `C=CCc1cc(Nc2c3ccc(Cl)cc3nc3ccc(OC)cc23)cc(CN(CC)CC)c1O`, the GI50 in the test on SF-539 CNS was 2.45 µM; with MALME-3M melanoma, 1.87 µM; in the test on OVCAR-5 ovarian, 6.75 µM; in the test on NCI-H226 lung it was 1.15 µM; in the test on CCRF-CEM leukemia, 0.8 µM; in the test on HCC-2998 colon, 2.71 µM. Moreover, the GI50 in the test on LOX IMVI melanoma is 1.23 µM; in the test with UO-31 renal it was 2.02 µM; in the test on OVCAR-4 ovarian, 1.68 µM; with UACC-62 melanoma it was 1.75 µM. The TGI was found to be 9.16 µM with SF-539 CNS; 6.78 µM in the test on MALME-3M melanoma; 26 µM in the test on OVCAR-5 ovarian; 10.8 µM in the test on NCI-H226 lung; 4.26 µM in the test with CCRF-CEM leukemia; 16.6 µM in the test on HCC-2998 colon. Also, the TGI with LOX IMVI melanoma turned out to be 2.58 µM; in the test with UO-31 renal it was 11 µM; with OVCAR-4 ovarian, 12.2 µM; in the test with UACC-62 melanoma, 4.4 µM.
On to `CCN1C(=O)N(CC)C2C1NN=c1s/c(=C\c3ccc(F)cc3)c(=O)n12` (configuration not stated), for which the GI50 in the test on SF-539 CNS was 0.158 µM; in the test with MALME-3M melanoma it was 28.9 µM; with OVCAR-5 ovarian it was 0.473 µM; in the test on NCI-H226 lung it was 20.3 µM; in the test with CCRF-CEM leukemia, 0.265 µM; in the test with HCC-2998 colon, 0.319 µM. Moreover, the GI50 in the test on LOX IMVI melanoma is 0.338 µM; with UO-31 renal it was 0.601 µM; in the test with OVCAR-4 ovarian, 0.786 µM; with UACC-62 melanoma, 0.111 µM. Besides, the TGI in the test with SF-539 CNS was 0.527 µM; with MALME-3M melanoma it was greater than 100 µM; in the test with OVCAR-5 ovarian, greater than 100 µM; in the test on NCI-H226 lung, greater than 100 µM; in the test on CCRF-CEM leukemia it was greater than 100 µM; in the test on HCC-2998 colon it was greater than 100 µM. The TGI in the test on LOX IMVI melanoma, in the test on UO-31 renal, in the test on OVCAR-4 ovarian and in the test with UACC-62 melanoma was greater than 100 µM each time.
Regarding `c1cc(N2CCN(c3ccc(C4=NCCCN4)cc3)CC2)ccc1C1=NCCCN1`, the GI50 is greater than 74.5 µM in the test with SF-539 CNS; greater than 47.6 µM in the test with MALME-3M melanoma; greater than 87.8 µM in the test with OVCAR-5 ovarian; 59.3 µM in the test with NCI-H226 lung; greater than 61.4 µM with CCRF-CEM leukemia; greater than 100 µM in the test on UO-31 renal. Besides, the GI50 with OVCAR-4 ovarian was 71.8 µM. Moreover, the TGI in the test with SF-539 CNS was greater than 100 µM; with MALME-3M melanoma it was greater than 100 µM; in the test with OVCAR-5 ovarian, greater than 100 µM; with NCI-H226 lung, greater than 100 µM; with CCRF-CEM leukemia, greater than 100 µM; in the test on HCC-2998 colon it was greater than 45.2 µM. In addition, the TGI was greater than 77.9 µM in the test on LOX IMVI melanoma, greater than 100 µM in the test on UO-31 renal, greater than 100 µM in the test on OVCAR-4 ovarian and greater than 35.3 µM with UACC-62 melanoma.
Regarding `N#CC1(C#N)C(c2ccccc2)C=CC12OCCCO2` (configuration not stated), the TGI in the test with SF-539 CNS was 45.9 µM; in the test with MALME-3M melanoma, greater than 100 µM; in the test on OVCAR-5 ovarian it was greater than 100 µM; with NCI-H226 lung, greater than 100 µM; with CCRF-CEM leukemia it was 88.7 µM; with HCC-2998 colon, greater than 100 µM. Further, the TGI in the test with LOX IMVI melanoma, with UO-31 renal, with OVCAR-4 ovarian and with UACC-62 melanoma was greater than 100 µM each time.
Take `Cc1ccc(NC(=O)C(=O)C(C(=O)/C=C/c2ccccc2)C2OC(=O)c3ccccc32)c(C)c1` (configuration not stated): the TGI with SF-539 CNS, in the test on MALME-3M melanoma, with OVCAR-5 ovarian, in the test with NCI-H226 lung, in the test on CCRF-CEM leukemia and with HCC-2998 colon was greater than 100 µM in each case. Moreover, the TGI with LOX IMVI melanoma, in the test on UO-31 renal, in the test with OVCAR-4 ovarian and with UACC-62 melanoma was greater than 100 µM throughout.
As to `CC1=C(CC2C(=O)N(c3ccccc3)S(=O)(=O)NC2C)C(=O)N(c2ccccc2)S(=O)(=O)N1C` (configuration not stated), the TGI with SF-539 CNS, in the test on MALME-3M melanoma, in the test with OVCAR-5 ovarian, in the test on NCI-H226 lung, in the test on CCRF-CEM leukemia and in the test with HCC-2998 colon was greater than 100 µM throughout. Also, the TGI in the test on LOX IMVI melanoma, with UO-31 renal, in the test with OVCAR-4 ovarian and in the test with UACC-62 melanoma was greater than 100 µM throughout.
For `COc1ccc2c(c1)C(=O)c1c-2c(OCCN(C)C)nc2ccccc12`, the GI50 was 4.75 µM in the test with SF-539 CNS; 2.46 µM with MALME-3M melanoma; 4.53 µM in the test with OVCAR-5 ovarian; 2.15 µM in the test with NCI-H226 lung; 0.825 µM with CCRF-CEM leukemia; 3.89 µM in the test on HCC-2998 colon. In addition, the GI50 in the test on LOX IMVI melanoma was 1.54 µM; in the test with UO-31 renal, 0.962 µM; in the test on OVCAR-4 ovarian, 3.03 µM; in the test with UACC-62 melanoma it was 3.9 µM. Further, the TGI was 17.9 µM with SF-539 CNS; 8.65 µM in the test with MALME-3M melanoma; 18.5 µM with OVCAR-5 ovarian; 10.4 µM in the test with NCI-H226 lung; 10.4 µM in the test with CCRF-CEM leukemia; 14.5 µM with HCC-2998 colon. In addition, the TGI in the test with LOX IMVI melanoma turned out to be 4.91 µM; in the test on UO-31 renal it was 2.76 µM; in the test on OVCAR-4 ovarian, 10.8 µM; with UACC-62 melanoma, 15.7 µM.
